In US20080039410A1, “Inositol 1,4,5-Trisphosphate Receptor Mutants and Uses Thereof” (priority 2004, published 2008):
Where “and” joins values, the source holds several entries; their conditions need not be identical. Equal entries are not always repeated. Entries after “also recorded” stand apart in the source; their conditions may differ.

How the values were obtained:
S2− InsP3R-1 [1] = assay: Phosphorylation of Ser-1755 after forskolin in transfected HEK-293 cells (immunoprecipitation, Western blot); assay type: cell-based, rat; details: 20 μM forskolin 10 min, α-phospho-Ser-1755 blot
Procedure: HEK-293 cells were plated onto 25-cm^2 culture flasks and allowed to grow to near-confluency. Cells were transfected with 5 μg of each S2− InsP3R-1 DNA construct by using the LipofectAMINE reagent (Invitrogen) as per the manufacturer's instructions. The following day, batches of cells were treated in the presence or absence of 20 μM forskolin for 10 min, aspirated from flasks, lysed, and immunoprecipitated with a polyclonal α-InsP3R-1 antibody that recognizes amino acids 2731-2749 of InsP3R-1. Immunoprecipitates were separated on 5% SDS gels transferred to nitrocellulose and then probed with either the α-InsP3R-1 antibody or a polyclonal antibody that recognizes the phosphorylated state of Ser-1755 (39) (α-phospho-Ser-1755), kindly provided by Dr. S. Snyder. Blots that were probed with a-phospho-Ser-1755were stripped and reprobed with the α-InsP3R-1 antisera to confirm the presence and relative quantity of the InsP3R-1.
The enhanced apparent sensitivity of individual phosphomimetic mutants was essentially equal and intermediate between the sensitivity of the S2−WT and S2−EE mutations. […] To address this possibility directly, experiments were performed evaluating the effects of activating endogenous PKA in cells expressing S2−SE or S2−ES to mimic prior phosphorylation of an individual site. […] To test this, experiments were performed to determine the phosphorylation state of the various mutants after raising cAMP levels. These experiments were performed in HEK-293 cells because of the high transfection efficiency and low endogenous levels of InsP3R-1 (47, 99). […] Following incubation of the lysates with α-InsP3R-1 antibody, the immune complexes were captured and separated on SDS gels, and the phosphorylation status of Ser-1755 was determined by Western blotting with an antibody that specifically recognizes this phosphorylated residue in InsP3R-1 (39).

S2− InsP3R-1 [2] = assay: Potentiation of CCh-induced Ca2+ release after PKA activation (forskolin), S2− InsP3R-1 constructs in DT-40 3ko cells; assay type: cell-based, rat; details: for effect of forskolin treatment on CCh-induced [Ca^2+]i peak: threshold CCh; for Ca^2+ release after PKA activation: S2 − InsP3R-1 constructs, Table 2
Procedure: DT-40 cells lacking all three InsP3 receptor subtypes DT-40 3ko were transfected using electroporation, 350 V and 950 μF. 2×10^7 cells were co-transfected with 25 μg of the InsP3R cDNA, 25 μg of the muscarinic type 3 (M3) receptor, and 4 μg of the red fluorescent protein plasmid pHcRed1-N1. Cells were incubated with DNA in 500 μL of Optimem media on ice for 10 minutes. The cell/DNA mixture was electroporated, incubated on ice for 30 minutes, brought up to 5 ml with Optimem and placed in a 5% C02 incubator at 39° C. for 5 hours. The cells were then centrifuged and resuspended in 12 ml of complete RPMI media. Transfection efficiency was typically ˜20%. Experiments were performed within 32 hours of transfection.
Transfected DT-40 3ko cells were washed once in a HEPES-buffered physiological saline solution (HEPES-PSS) containing (in mM) 5.5 glucose, 137 NaCl, 0.56 MgCl2, 4.7 KCl, 1 Na2HPO4, 10 HEPES (pH 7.4), 1.2 CaCl2 and 1% w/v Bovine Serum Albumin. Cells were then resuspended in BSA HEPES-PSS with 1 μM Fura-2 (AM), placed on a 15 mm glass coverslip in a low volume perfusion chamber (Warner Instruments) and allowed to adhere for 30 minutes at room temperature. Cells were perfused continually for 10 minutes with HEPES-PSS before experimentation to allow Fura-2 de-esterification. A field of cells for each experiment was chosen that contained a wide range of transfection efficiency based upon the intensity of red fluorescence emitted when excited at 560 nm. [Ca^2+]i imaging was performed essentially as previously described using an inverted epifluorescence Nikon microscope with a 40× oil immersion objective lens (numerical aperture, 1.3). Cells were excited alternately with light at 340 and 380 nm (±10 mn bandpass filters, Chroma) using a monochrometer (TILL Photonics). Fluorescence images were captured and digitized with a digital camera driven by TILL Photonics software. Images were captured every 2 seconds with an exposure of 35 ms and no binning. 340/380 ratio images were calculated online and stored immediately to hard disk.
The effects of treatment were determined by normalizing the peak change in fluorescence ratio by stimulation following forskolin or 8-Br cGMP exposure to that of stimulation in control HEPES-PSS. Thus, pooled data represents a normalized fold increase over control for the treated trial. Two tailed heteroscedastic t-tests with P values<0.05 were considered to have statistical significance.
Similar experimental paradigms were employed to assess the effect of PKA-induced phosphorylation on a homogeneous population of S2^− InsP3R-1.
The effects of treatment were determined by normalizing the peak change in fluorescence ratio by stimulation following forskolin or 8-Br-cGMP exposure to that of stimulation in control HEPES-PSS. Thus, pooled data represent a normalized fold increase over control for the treated trial. In all cases where statistical significance is indicated, two-tailed heteroscedastic t tests were performed. P values<0.05 were considered to indicate statistical significance and are denoted by an asterisk in the figures.
The enhanced apparent sensitivity of individual phosphomimetic mutants was essentially equal and intermediate between the sensitivity of the S2−WT and S2−EE mutations. […] To address this possibility directly, experiments were performed evaluating the effects of activating endogenous PKA in cells expressing S2−SE or S2−ES to mimic prior phosphorylation of an individual site. […] To test this, experiments were performed to determine the phosphorylation state of the various mutants after raising cAMP levels. These experiments were performed in HEK-293 cells because of the high transfection efficiency and low endogenous levels of InsP3R-1 (47, 99). […]

| Substance | phosphorylation of Ser-1755 after forskolin (S2− InsP3R-1 [1]) | effect of forskolin treatment on CCh-induced [Ca^2+]i peak (S2− InsP3R-1 [2]; 20 μM forskolin) | Ca^2+ release after PKA activation (S2− InsP3R-1 [2]) | phosphorylation of Ser-1755 after forskolin (S2− InsP3R-1 [1]; listed as S2−InsP3R-1) | phosphorylation of Ser-1755 after forskolin (S2− InsP3R-1 [1]; listed as wild type S2^−InsP3R-1) | effect on subsequent CCh-induced Ca^2+ release (S2− InsP3R-1 [2]; 100 nM, 500 nM or 1 μM forskolin) | fold potentiation of Ca^2+ release (S2− InsP3R-1 [2]; 5 μM forskolin (threshold concentration)) | fold increase in CCh-induced Ca^2+ release in the presence of forskolin (S2− InsP3R-1 [2]; 20 μM forskolin, Fura-2, listed as wild-type S2^− InsP3R-1) | effect of forskolin treatment on CCh-induced [Ca^2+]i peak (S2− InsP3R-1 [2]; 20 μM forskolin, listed as S2^− InsP3R-1) | effect of forskolin treatment on CCh-induced [Ca^2+]i peak (S2− InsP3R-1 [2]; 20 μM forskolin, listed as wild type S2^− InsP3R-1) | effect of forskolin treatment on CCh-induced [Ca^2+]i peak (S2− InsP3R-1 [2]; 20 μM forskolin, listed as wild-type S2^− InsP3R-1) |
| --- | --- | --- | --- | --- | --- | --- | --- | --- | --- | --- | --- |
| S2−EE: phosphomimetic S1589E/S1755E mutant of the short splice variant | no phosphorylation | no potentiation | No change/NT | – | – | – | – | – | – | – | – |
| G1690A: InsP3R-1 S2− variant with glycine to alanine substitution at position 1690 (nucleotide binding site mutant) | not susceptible to phosphorylation; also recorded: not phosphorylated | strikingly absent; also recorded: fails to potentiate | – | – | – | – | – | – | – | – | – |
| S2−ES: phosphomimetic short splice variant S1589E | no phosphorylation; also recorded: lack of phosphorylation | no potentiation | No change/NT | – | – | – | – | – | – | – | – |
| S2−WT: wild-type rat type-1 InsP3 receptor, peripheral short S2− splice variant (SEQ ID NO: 17) | – | dramatic potentiation; also recorded: markedly potentiated | Enhanced | results in phosphorylation | robustly phosphorylated | failed to enhance | 1.26±0.21 fold | ~3 fold and ~4 fold | potentiated Ca^2+ release | enhanced CCh stimulated Ca^2+ release | marked potentiation |
| S2−SE: phosphomimetic short splice variant of S1755E | no phosphorylation | no potentiation | No change/NT | – | – | – | – | – | – | – | – |
